Experimental data: patent US8673620B2, “Radioresistant alga of the Coccomyxa genus” (priority 2010, dated 2014)

Legend:
Coccomyxa actinabiotis [1] = test: Extraction of bound metals from the microalgae with water or HCl; assay type: cell-based
Protocol: Experiments in which the metals bound by the algae are solubilized were carried out by incubating these algae (70 mg of fresh matter) in 5 ml of demineralized water, or of demineralized water supplemented with HCl at various concentrations. In neutral medium, the metals are not extracted.
The cations most retained are ^60Co, ^108mAg and ^110mAg. They remain bound to the cell for low concentrations of HCl (pH 4.5 to 2.5). They begin to be released exponentially below a threshold pH of 2.5, Co being the most solidly bound since it is at most 35% extracted after 6 days of exposure at pH 0.5, whereas Ag is 90% extracted under the same conditions. At pH 1.5, 10% of Ag and 2% of Co are extracted after 6 days of exposure.

Coccomyxa actinabiotis [2] = test: Extraction of bound metals from the microalgae with 0.1 M EDTA pH 4.5; assay type: cell-based; conditions: 0.1 M EDTA pH 4.5, 2 days of exposure
Protocol: Other experiments were carried out in the presence of a 0.1 M solution of EDTA with a pH of 4.5. Under these conditions, 35% of the ^51Cr contained in the algae, but only 1% of the ^60Co and less than 0.5% of ^108mAg and ^116mAg, are extracted after 2 days of exposure.

Coccomyxa actinabiotis [3] = assay type: cell-based; conditions: after one day; 250 mg fresh mass of microalgae from BBM culture
Protocol: Another experiment was carried out by placing 250 mg of fresh mass of microalgae originating from cultures in BBM medium in the presence of […] of demineralized water which has a composition similar to that of the water from the spent fuel storage pools, namely pH 5.5, conductivity 1.2 μS/cm, containing 280 Bq/l of ^60Co, 530 Bq/l of ^58Co, 66 Bq/l of ^110mAg, 1460 Bq/l of ^124Sb, 1180 Bq/l of ^51Cr, 120 Bq/l of ^65Zn, […] and also tritium (260 000 Bq/l) and ^14C (10 000 Bq/l).

Coccomyxa actinabiotis [4] = test: Transported decontamination of storage pool water, 24 h contact; assay type: cell-based; conditions: 50 ml water, 9×10^8 cells (140 mg fresh mass)
Protocol: Water originating from a spent nuclear element storage pool was brought into contact with Coccomyxae actinabiotis(50 ml of water in contact with 9×10^8 cells, i.e. 140 mg of algae by fresh mass, originating from culture and rinsed beforehand three times with Milli-Q water).
Table V below indicates the initial composition of the water, according to the total γ-activity measured and the γ-activity measured per radionuclide, and the percentage of γ-emitting radionuclides bound by the algae at 24 h.

Coccomyxa actinabiotis [5] = test: Maximum metal concentrations tolerated (one week exposure to Ag or Co); assay type: cell-based
Protocol: The limiting doses supported by Coccomyxa actinabiotis were investigated by exposure of the algae to silver or to cobalt for one week (20 mg of microalgae (fresh mass) in 100 ml of deionized water containing Ag or Co ions at various concentrations).

Deinococcus radiodurans = conditions: John et al. 2000; cited from earlier work
Coccomyxa actinabiotis [6] = test: Growth in the presence of cobalt; assay type: cell-based
From the text: However, the Coccomyxa actinabiotis microalga does grow in the presence of 10^−4 mol/l of cobalt.

Coccomyxa actinabiotis [7] = test: Exposure to heavy water: respiration and photosynthesis of the algae; assay type: cell-based; conditions: 24 h and 48 h in 50%, 80% and 100% D2O in the dark; 24 h light in 50% D2O
organisms = conditions: Ratte 1999; cited from earlier work
Coccomyxa actinabiotis [8] = test: Kinetics of binding and incorporation of silver by algae with or without mucilage; assay type: cell-based
Protocol: Two series of experiments were carried out: one with algae having a coating of mucilage, the thickness of which, evaluated by optical microscopy, is about 1 μm or more (“algae with mucilage”), the other with algae cultured in BBM medium and having little or no mucilage (“algae without mucilage”).
20 mg of algae (compacted fresh mass) and 90 ml of solution of Ag^+ at various concentrations are introduced into Erlenmeyer flasks. The 20 mg of algae are prepared as follows: sample taken from a round-bottomed culture flask, centrifugation for 20 minutes at 3000 rpm, washing twice in demineralized water (suspension, centrifugation). The culture medium is thus removed and there is no risk of it complexing the silver.
The algae without mucilage are brought into contact with solutions containing 0.11 mg/L and 5.5 mg/L of Ag^+.
The algae with mucilage are brought into contact with solutions containing 22 μg/L, 1.1 mg/L and 55 mg/L of Ag^+.
The Erlenmeyer flasks are placed on illuminated shakers and samples of 5 ml are taken for various exposure times in order to monitor the binding kinetics for each of the initial concentrations of silver. The samples are centrifuged for 10 minutes at 4500 rpm in order to separate the algae which have concentrated the metal. The metal content is then analyzed in the pellet (algae) and in the supernatant.

[51Cr] [^51Cr]
metal extracted from algae (Coccomyxa actinabiotis [1]; pH 0.5, 6 days of exposure): ≤ 25% | metal contained in the algae extracted (Coccomyxa actinabiotis [2]): 35% | percentage of isotope fixed (Coccomyxa actinabiotis [3]): 48%

[Mn] [^54Mn]
% binding by the algae (Coccomyxa actinabiotis [4]): 100% | percentage of isotope fixed (Coccomyxa actinabiotis [3]): 90%

[58Co] [^58Co]
percentage of isotope fixed (Coccomyxa actinabiotis [3]): 94%

[60Co] [^60Co]
% binding by the algae (Coccomyxa actinabiotis [4]): 72% | metal contained in the algae extracted (Coccomyxa actinabiotis [2]): 1% | percentage of isotope fixed (Coccomyxa actinabiotis [3]): 94%

[65Zn] [^65Zn]
percentage of isotope fixed (Coccomyxa actinabiotis [3]): 100%

[110Ag] [^110mAg]
% binding by the algae (Coccomyxa actinabiotis [4]): 100% | percentage of isotope fixed (Coccomyxa actinabiotis [3]): 100%

[124Sb] [^124Sb]
percentage of isotope fixed (Coccomyxa actinabiotis [3]): 30%

[137Cs] [^137Cs]
% binding by the algae (Coccomyxa actinabiotis [4]): 100%

[U] [^238U]
% binding by the algae (Coccomyxa actinabiotis [4]): 95%

[Co+2] [cobalt]
cobalt intolerance threshold (Co2+ concentration) (Coccomyxa actinabiotis [5]; with mucilage): > 800 mg/L | cobalt intolerance threshold (Co2+ concentration) (Coccomyxa actinabiotis [5]; without mucilage): > 50 mg/L | metal extracted from algae (Coccomyxa actinabiotis [1]; pH 0.5, 6 days of exposure): at most 35% | metal extracted from algae (Coccomyxa actinabiotis [1]; pH 1.5, 6 days of exposure): 2% | cobalt concentration inhibiting growth (Deinococcus radiodurans): 5 ppm | cobalt concentration in the presence of which the microalga grows (Coccomyxa actinabiotis [6]): 10^−4 mol/l

[2H]O[2H] [heavy water]
effect on respiration and photosynthesis of the algae (Coccomyxa actinabiotis [7]): no effect

[Ag] [silver]
extracellular silver concentration withstood (Coccomyxa actinabiotis [5]; Coccomyxae actinabiotis with mucilage): at least 50 mg/L | silver concentration at which algae do not survive (Coccomyxa actinabiotis [5]; Coccomyxae actinabiotis without mucilage): greater than 250 μg/L | metal extracted from algae (Coccomyxa actinabiotis [1]; pH 0.5, 6 days of exposure): 90% | metal extracted from algae (Coccomyxa actinabiotis [1]; pH 1.5, 6 days of exposure): 10% | concentration at which silver is generally toxic (organisms): 10^−7-10^−5 mol/l | silver bound at the plateau (Coccomyxa actinabiotis [8]; algae with mucilage, initial concentration 55 mg/l): 20% | silver bound at the plateau (Coccomyxa actinabiotis [8]; algae without mucilage, initial concentration 5.5 mg/l): 75%
